From patent US10350210B2, “EGFR and ALK dual inhibitor” (PRECEDO PHARMACEUTICALS CO., LTD, priority 2015, dated 2019) come the findings set out here.

In one test the test system is CHL. Briefly: Cell growth (Cell Titer-Glo viability), CHL. Conditions: Cricetulus griseus; CHL Chinese hamster lung cell, 72 hrs; read-out: GI50. Type of test: cell-based, Chinese hamster.
For the next test, the system named is H1975. Briefly: Effect on cell cycle (PI staining, flow cytometer), H1975. It is filed as cell-based, human. Conditions: H1975 (EGFR L858R/T790M), 24 hours. The text has this:
In order to study which growth phase the cell was halted after administration of the drugs, five cell lines including non-small cell lung cancer cell line A549 (expressing wild-type EGFR gene), non-small cell lung cancer cell line H1975 (expressing EGFR L858R/T790M double mutant gene), non-small cell Lung cancer cell line PC-9 (expressing EGFR delE746_A750 mutant gene), non-small cell lung cancer cell line H3255 (expressing EGFR L858R mutant gene) and non-small cell lung cancer cell NCI-H3122 (expressing ALK gene) were tested for effect of Compound 1 on cell cycle distribution. Two cell lines including non-small cell lung cancer cell NCI-H3122 (expressing ALK gene) and non-small cell lung cancer cell H1975 (expressing EGFR L858R/T790M double mutant gene) were tested for effect of Compound 10 on cell cycle distribution. […]

For the next test, the system named is BaF3-TEL-ALK. Briefly: Cell growth (Cell Titer-Glo viability), BaF3-TEL-ALK. It is filed as cell-based. Conditions: Mus musculus; BaF3-TEL-ALK (stably expressing ALK kinase), 72 hrs. In a few lines:
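Luminescent ATP-based viability (CellTiter-Glo) measured viable cell number after compound exposure. Engineered lines were murine BaF3 made growth-factor independent by a TEL-kinase fusion and IL-3 removal. The human lung cancer lines harbor EGFR del19 (HCC827) or EGFR L858R (NCI-H3255).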

Turning to `C=CC(=O)Nc1cc(Nc2ncc(Cl)c(Nc3ccccc3S(=O)(=O)C(C)C)n2)c(OC)cc1N1CCN(CC)CC1` [Compound 1, N-(5-(5-chloro-4-(2-(isopropylsulfonyl)phenylamino)pyrimidin-2-ylamino)-2-(4-ethylpiperazin-1-yl)-4-methoxyphenyl)acrylamide], the values for the GI50 in the test with CHL and in the test on BaF3-TEL-ALK were 1800 nM and less than 0.3 nM, respectively. Moreover, the “effect on cell cycle distribution” value in the test with H1975 is reported as “halt the cells in G0-G1 phase”.

With `C=CC(=O)Nc1cc(Nc2ncc(Cl)c(Nc3ccccc3S(=O)(=O)C(C)C)n2)c(OC)cc1N1CCCN(C)CC1` [Compound 10, N-(5-(5-chloro-4-(2-(isopropylsulfonyl)phenylamino)pyrimidin-2-ylamino)-4-methoxy-2-(4-methyl-1,4-homopiperazin-1-yl)phenyl)acrylamide], the GI50 was determined as 3500 nM with CHL and 3 nM in the test with BaF3-TEL-ALK. The “effect on cell cycle distribution” value with H1975 is recorded as “halt the cells in G0-G1 phase”.
